Laboratory results: patent US20200231638A1, “STABILIZED ANTI-MICROBIAL PEPTIDES” (priority 2015, published 2020)
Bridge positions count the residues as written; N and C are the ends. Square brackets hold non-standard residues; d marks the D form. Peptide text beside a SMILES is read from it. Hyp = O=C(O)[C@@H]1C[C@@H](O)CN1; S5 = C=CCCC[C@](C)(N)C(=O)O; Nle = CCCC[C@H](N)C(=O)O; Aib = CC(C)(N)C(=O)O

Legend:
[1] = tested on: S. aureus; type: cell-based, Staphylococcus aureus
Procedure, shortened: (§1)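 Broth microdilution; anion-exchange-refined MHB; overnight culture at 37° C, diluted and regrown; inoculum 5×10^5 CFU/ml final; peptides serially diluted in water; 20-24 h, 37° C; MIC = lowest concentration without visible growth.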

[2] = tested on: E. coli; type: cell-based, Escherichia coli
Procedure, shortened: as §1

[3] = tested on: P. aeruginosa; type: cell-based, Pseudomonas aeruginosa
Procedure, shortened: as §1

[4] = tested on: human red blood cells; type: cell-based; conditions: red cells of human, 1 h, 25
Procedure, shortened: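 Hemolysis expressed as absorbance of released hemoglobin (570 nm) normalized between untreated and 1% Triton-X100 controls, with MHC taken as peptide concentration giving under 1% release. Peptide dilutions were exposed for 1 h at 37° C to a 1% (v/v) suspension of washed human red cells in PBS.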

[5] = tested on: B. cereus; type: cell-based, Bacillus cereus
Procedure, shortened: as §1

SMILES	MIC S. aureus [1] [µg/mL]	MIC E. coli [2] [µg/mL]	MIC P. aeruginosa [3] [µg/mL]	% Hemolysis at 25 μg/ml [4] [%]	MIC B. cereus [5] [µg/mL]
CCCC[C@H](NC(=O)[C@]1(C)CCCC=CCCC[C@](C)(NC(=O)[C@H](C)NC(=O)[C@H](CCCCN)NC(=O)CNC(=O)[C@H](Cc2ccccc2)NC(=O)[C@H](CCCCN)NC(=O)[C@H](CCCCN)NC(=O)[C@H](C)NC(=O)[C@H](CO)NC(=O)[C@H](Cc2c[nH]cn2)NC(=O)[C@H](CC(C)C)NC(=O)[C@H](Cc2ccccc2)NC(=O)[C@H](CCCCN)NC(=O)[C@H](CCC(=O)O)NC(=O)[C@@H](NC(=O)CN)[C@@H](C)CC)C(=O)N[C@@H](C(C)C)C(=O)NCC(=O)N[C@@H](CCC(=O)O)C(=O)N1)C(=O)N[C@@H](CC(N)=O)C(=O)N[C@@H](CO)C(N)=O [Mag(i + 4)15(G3E), GIEKFLHSAKKFGKAXVGEXBNS] (H-GIEKFLHSAKKFGKA[S5]VGE[S5][Nle]NS-NH2; staple 16-20)	50	3.1	12.5	3.9	12.5
CCCC[C@H](NC(=O)[C@]1(C)CCCC=CCCC[C@](C)(NC(=O)[C@H](C)NC(=O)[C@H](CCCCN)NC(=O)CNC(=O)[C@H](Cc2ccccc2)NC(=O)[C@H](CCCCN)NC(=O)[C@H](CCCCN)NC(=O)[C@H](C)NC(=O)[C@H](CO)NC(=O)[C@H](Cc2c[nH]cn2)NC(=O)[C@H](CC(C)C)NC(=O)[C@H](Cc2ccccc2)NC(=O)[C@H](CCCCN)NC(=O)[C@H](Cc2c[nH]cn2)NC(=O)[C@@H](NC(=O)CN)[C@@H](C)CC)C(=O)N[C@@H](C(C)C)C(=O)NCC(=O)N[C@@H](CCC(=O)O)C(=O)N1)C(=O)N[C@@H](CC(N)=O)C(=O)N[C@@H](CO)C(N)=O [Mag(i + 4)15(G3H), GIHKFLHSAKKFGKAXVGEXBNS] (H-GIHKFLHSAKKFGKA[S5]VGE[S5][Nle]NS-NH2; staple 16-20)	25	1.6	12.5	5.1	6.2
CCCC[C@H](NC(=O)[C@]1(C)CCCC=CCCC[C@](C)(NC(=O)[C@H](C)NC(=O)[C@H](CCCCN)NC(=O)CNC(=O)[C@H](Cc2ccccc2)NC(=O)[C@H](CCCCN)NC(=O)[C@H](CCCCN)NC(=O)[C@H](C)NC(=O)[C@H](CO)NC(=O)[C@H](Cc2c[nH]cn2)NC(=O)[C@H](CC(C)C)NC(=O)[C@H](Cc2ccccc2)NC(=O)[C@H](CCCCN)NC(=O)[C@H](CCCCN)NC(=O)[C@@H](NC(=O)CN)[C@@H](C)CC)C(=O)N[C@@H](C(C)C)C(=O)NCC(=O)N[C@@H](CCC(=O)O)C(=O)N1)C(=O)N[C@@H](CC(N)=O)C(=O)N[C@@H](CO)C(N)=O [Mag(i + 4)15(G3K), GIKKFLHSAKKFGKAXVGEXBNS] (H-GIKKFLHSAKKFGKA[S5]VGE[S5][Nle]NS-NH2; staple 16-20)	12.5	1.6	3.1	3.8	6.2
CCCC[C@H](NC(=O)[C@]1(C)CCCC=CCCC[C@](C)(NC(=O)[C@H](C)NC(=O)[C@H](CCCCN)NC(=O)C(C)(C)NC(=O)[C@H](Cc2ccccc2)NC(=O)[C@H](CCCCN)NC(=O)[C@H](CCCCN)NC(=O)[C@H](C)NC(=O)[C@H](CO)NC(=O)[C@H](Cc2c[nH]cn2)NC(=O)[C@H](CC(C)C)NC(=O)[C@H](Cc2ccccc2)NC(=O)[C@H](CCCCN)NC(=O)CNC(=O)[C@@H](NC(=O)CN)[C@@H](C)CC)C(=O)N[C@@H](C(C)C)C(=O)NCC(=O)N[C@@H](CCC(=O)O)C(=O)N1)C(=O)N[C@@H](CC(N)=O)C(=O)N[C@@H](CO)C(N)=O [Mag(i + 4)15(G13!), GIGKFLHSAKKF!KAXVGEXBNS] (H-GIGKFLHSAKKF[Aib]KA[S5]VGE[S5][Nle]NS-NH2; staple 16-20)	3.1	1.6	3.1	71.5	3.1
CCCC[C@H](NC(=O)[C@]1(C)CCCC=CCCC[C@](C)(NC(=O)[C@H](C)NC(=O)[C@H](CCCCN)NC(=O)[C@@H]2C[C@@H](O)CN2C(=O)[C@H](Cc2ccccc2)NC(=O)[C@H](CCCCN)NC(=O)[C@H](CCCCN)NC(=O)[C@H](C)NC(=O)[C@H](CO)NC(=O)[C@H](Cc2c[nH]cn2)NC(=O)[C@H](CC(C)C)NC(=O)[C@H](Cc2ccccc2)NC(=O)[C@H](CCCCN)NC(=O)CNC(=O)[C@@H](NC(=O)CN)[C@@H](C)CC)C(=O)N[C@@H](C(C)C)C(=O)NCC(=O)N[C@@H](CCC(=O)O)C(=O)N1)C(=O)N[C@@H](CC(N)=O)C(=O)N[C@@H](CO)C(N)=O [Mag(i + 4)15(G13&), GIGKFLHSAKKF&KAXVGEXBNS] (H-GIGKFLHSAKKF[Hyp]KA[S5]VGE[S5][Nle]NS-NH2; staple 16-20)	>50	12.5	50	1.3	>50
CCCC[C@H](NC(=O)[C@]1(C)CCCC=CCCC[C@](C)(NC(=O)[C@H](C)NC(=O)[C@H](CCCCN)NC(=O)[C@H](C)NC(=O)[C@H](Cc2ccccc2)NC(=O)[C@H](CCCCN)NC(=O)[C@H](CCCCN)NC(=O)[C@H](C)NC(=O)[C@H](CO)NC(=O)[C@H](Cc2c[nH]cn2)NC(=O)[C@H](CC(C)C)NC(=O)[C@H](Cc2ccccc2)NC(=O)[C@H](CCCCN)NC(=O)CNC(=O)[C@@H](NC(=O)CN)[C@@H](C)CC)C(=O)N[C@@H](C(C)C)C(=O)NCC(=O)N[C@@H](CCC(=O)O)C(=O)N1)C(=O)N[C@@H](CC(N)=O)C(=O)N[C@@H](CO)C(N)=O [Mag(i + 4)15(G13A), GIGKFLHSAKKFAKAXVGEXBNS] (H-GIGKFLHSAKKFAKA[S5]VGE[S5][Nle]NS-NH2; staple 16-20)	3.1	1.6	6.2	20.5	3.1
CCCC[C@H](NC(=O)[C@]1(C)CCCC=CCCC[C@](C)(NC(=O)[C@H](C)NC(=O)[C@H](CCCCN)NC(=O)[C@H](CCC(=O)O)NC(=O)[C@H](Cc2ccccc2)NC(=O)[C@H](CCCCN)NC(=O)[C@H](CCCCN)NC(=O)[C@H](C)NC(=O)[C@H](CO)NC(=O)[C@H](Cc2c[nH]cn2)NC(=O)[C@H](CC(C)C)NC(=O)[C@H](Cc2ccccc2)NC(=O)[C@H](CCCCN)NC(=O)CNC(=O)[C@@H](NC(=O)CN)[C@@H](C)CC)C(=O)N[C@@H](C(C)C)C(=O)NCC(=O)N[C@@H](CCC(=O)O)C(=O)N1)C(=O)N[C@@H](CC(N)=O)C(=O)N[C@@H](CO)C(N)=O [Mag(i + 4)15(G13E), GIGKFLHSAKKFEKAXVGEXBNS] (H-GIGKFLHSAKKFEKA[S5]VGE[S5][Nle]NS-NH2; staple 16-20)	>50	25	>50	2.2	>50
CCCC[C@H](NC(=O)[C@]1(C)CCCC=CCCC[C@](C)(NC(=O)[C@H](C)NC(=O)[C@H](CCCCN)NC(=O)[C@H](CCCCN)NC(=O)[C@H](Cc2ccccc2)NC(=O)[C@H](CCCCN)NC(=O)[C@H](CCCCN)NC(=O)[C@H](C)NC(=O)[C@H](CO)NC(=O)[C@H](Cc2c[nH]cn2)NC(=O)[C@H](CC(C)C)NC(=O)[C@H](Cc2ccccc2)NC(=O)[C@H](CCCCN)NC(=O)CNC(=O)[C@@H](NC(=O)CN)[C@@H](C)CC)C(=O)N[C@@H](C(C)C)C(=O)NCC(=O)N[C@@H](CCC(=O)O)C(=O)N1)C(=O)N[C@@H](CC(N)=O)C(=O)N[C@@H](CO)C(N)=O [Mag(i + 4)15(G13K), GIGKFLHSAKKFKKAXVGEXBNS] (H-GIGKFLHSAKKFKKA[S5]VGE[S5][Nle]NS-NH2; staple 16-20)	>50	3.1	12.5	1.8	>50
CCCC[C@H](NC(=O)[C@]1(C)CCCC=CCCC[C@](C)(NC(=O)[C@H](C)NC(=O)[C@H](CCCCN)NC(=O)[C@@H]2CCCN2C(=O)[C@H](Cc2ccccc2)NC(=O)[C@H](CCCCN)NC(=O)[C@H](CCCCN)NC(=O)[C@H](C)NC(=O)[C@H](CO)NC(=O)[C@H](Cc2c[nH]cn2)NC(=O)[C@H](CC(C)C)NC(=O)[C@H](Cc2ccccc2)NC(=O)[C@H](CCCCN)NC(=O)CNC(=O)[C@@H](NC(=O)CN)[C@@H](C)CC)C(=O)N[C@@H](C(C)C)C(=O)NCC(=O)N[C@@H](CCC(=O)O)C(=O)N1)C(=O)N[C@@H](CC(N)=O)C(=O)N[C@@H](CO)C(N)=O [Mag(i + 4)15(G13P), GIGKFLHSAKKFPKAXVGEXBNS] (H-GIGKFLHSAKKFPKA[S5]VGE[S5][Nle]NS-NH2; staple 16-20)	>50	3.1	25	2.0	25
